Laboratory results from article PMC9289130, “Pharmacokinetic Study of Four Major Bioactive Components of Liandan Xiaoyan Formula in Ulcerative Colitis and Control Rats Using UPLC-MS/MS” (Frontiers in Pharmacology, 2022).
Like-named read-outs stand apart in the source and are kept apart here.

Legend:
[1] = Pharmacokinetic study in control and DSS-induced UC rats after oral administration of LXF (serum, UPLC-MS/MS); format: in vivo, Sprague-Dawley (SD) rats; settings: for AUC(0-inf) / AUC(0-t) / Cmax / Tmax / half-life / MRT inf: male, Sprague-Dawley, rat, serum, po, 3.3 g/kg, oral LXF 3.30 g/kg, rat serum, n = 8, mean ± SD; for MRT inf: read-out: MRT0→∞
Protocol: Sixteen male Sprague-Dawley (SD) rats (220 ± 10 g) were provided from the Liaoning Changsheng Biotechnology Co., Ltd (Benxi, China; with license No. of SCXK, 2020-0001). The rats were kept in an environment (22 ± 2°C, relative humidity 50 ± 5%) under a 12-h light-dark cycle with a free diet and water for 3 days. All experiments on animals were conducted strictly under the related ethics regulations of the Committee on Use and Care of Animals of Guangzhou University of Chinese Medicine (Guangzhou, China) (No. 712052).
All rats were assigned equally and randomly to the control and model groups. The rats of the model group were free to access 4% DSS for 7 days to induce UC, and rats of the control group were given pure water ([Chen et al., 2020]). Before the pharmacokinetics study, the DSS-induced UC rats (model) were established successfully (Supplementary Material Part B).
After fasting for 12 h, the rats were orally administered LXF at a 3.30 g/kg dose according to Prescription preparation of Chinese medicine, volume 10 ([Lu et al., 2021]). Serum samples (approximately 0.5 ml) were collected from the fosse orbital vein using 1.5 ml polythene tubes before the administration and at 0.083, 0.25, 0.5, 1, 1.5, 2.5, 4, 6, 8, 12, 24, 36, and 48 h after dosing and centrifuged immediately at 3,500 rpm for 15 min. Serum was transferred into clean tubes and stored at −80°C.
100 μl of IS solution (960 ng/ml) was added to a 100 μl serum sample and vortex-mixed for 0.5 min, and then 800 μl of methanol was added and vortex-mixed for 3 min. After centrifugation at 12,000 rpm for 15 min (4°C), the supernatant of the mixture was transferred to another vial and evaporated to dryness with nitrogen purging. The residue was resolved with 100 μ of methanol, vortex-mixed for 1 min, and centrifuged at 12,000 rpm for 10 min (4°C). A 2 μl aliquot of the supernatant was injected into the UPLC-MS/MS system for analysis.
Chromatographic analysis was performed using UPLC-MS/MS, utilizing a Finnigan Surveyor auto-sampler and a Finnigan Surveyor LC pump combined with a triple quadrupole TSQ Quantum mass spectrometer electrospray ionization (ESI) interface (Thermo Fisher, Palo Alto, CA). The chromatographic separation was performed on the Waters Acquity UPLC BEH C18 column (2.1 mm × 100 mm; 1.7 µm). The mobile phase consisted of acetonitrile (A) and 0.1% formic acid (B) with a gradient elution program (0-5 min, 20% A-35% A; 5-6 min, 35% A-100% A; 6–8min, 100% A; 8–8.5 min, 100% A-20% A; 8.5–10.5 min, 20% A) at a flow rate of 0.4 ml/min. The column temperature was maintained at 40°C throughout the analysis. The injection volume was 2 μl.
Quantification was performed using multiple reaction monitoring (MRM) in the positive ionization mode, and the optimized MRM parameters of the four analytes and IS are listed in Table 1. The MRM transition, retention time (RT), and collision energy (CE) values were based on Thermo Foundation 2.0. Curtain gas pressure at 35 psi, ion source gas 1 and gas 2 at 55 psi, ion spray voltage at 5500 V, and temperature at 500°C.
Non-compartment model pharmacokinetic parameters, including the time to reach the maximum serum concentration (Tmax), the maximum serum concentration (Cmax), the elimination half-time (T1/2), the area under the serum concentration-time curve (AUC), and mean residence time (MRT), were calculated by DAS (version 3.2.8, Chinese Pharmacological Association, Anhui, China). The difference between the control and model groups was statistically analyzed using SPSS 26.0 (IBM Company, Chicago). All data in this study were subjected to a one-way analysis of variance (ANOVA) and then expressed by mean ± standard deviation (SD). LSD t-test was applied when the homogeneity of variance assumptions was satisfied; otherwise, Dunnett’s t-test was used. A p < 0.05 was considered statistically significant.

[2] = Stability test of QC samples in rat serum; format: in vitro ADME; settings: n = 6
Protocol: Quality control (QC) samples at low, middle and high concentrations (61.50, 384.38, and 4,000.00 ng/ml for andrographolide; 24.00, 150.00, and 1,500.00 ng/ml for dehydroandrographolide; 6.91, 43.20, and 450.00 ng/ml for 1-methoxicabony-β-carboline; 6.30, 39.38, and 400.00 ng/ml for 4-methoxy-5-hydroxy-canthin-6-one) were also prepared by the same procedures.
Recovery was determined at three QC levels and calculated by comparing the compound standard peak areas obtained from extracted samples with post-extracted samples spiked with the compound. Matrix effects were calculated by matching spiking post-extracted blank serum samples with corresponding standard clean solutions at three concentrations of QC samples.

[3] = 4°C for 24 h, high QC (nominal 4,000.00 / 1,500.00 / 450.00 / 400.00 ng/ml for compounds 1-4)
[4] = 4°C for 24 h, low QC (nominal 61.50 / 24.00 / 6.91 / 6.30 ng/ml for compounds 1-4)
[5] = 4°C for 24 h, middle QC (nominal 384.38 / 150.00 / 43.20 / 39.38 ng/ml for compounds 1-4)
[6] = 25°C for 12 h, high QC (nominal 4,000.00 / 1,500.00 / 450.00 / 400.00 ng/ml for compounds 1-4)
[7] = 25°C for 12 h, low QC (nominal 61.50 / 24.00 / 6.91 / 6.30 ng/ml for compounds 1-4)
[8] = 25°C for 12 h, middle QC (nominal 384.38 / 150.00 / 43.20 / 39.38 ng/ml for compounds 1-4)
[9] = three freeze-thaw, high QC (nominal 4,000.00 / 1,500.00 / 450.00 / 400.00 ng/ml for compounds 1-4)
[10] = three freeze-thaw, low QC (nominal 61.50 / 24.00 / 6.91 / 6.30 ng/ml for compounds 1-4)
[11] = three freeze-thaw, middle QC (nominal 384.38 / 150.00 / 43.20 / 39.38 ng/ml for compounds 1-4)
[12] = −80°C for 30 days, high QC (nominal 4,000.00 / 1,500.00 / 450.00 / 400.00 ng/ml for compounds 1-4)
[13] = −80°C for 30 days, low QC (nominal 61.50 / 24.00 / 6.91 / 6.30 ng/ml for compounds 1-4)
[14] = −80°C for 30 days, middle QC (nominal 384.38 / 150.00 / 43.20 / 39.38 ng/ml for compounds 1-4)

AUC(0-inf) ([1]; UC group (4% DSS for 7 days))	AUC(0-t) ([1]; UC group (4% DSS for 7 days))	Cmax ([1]; UC group (4% DSS for 7 days))	Tmax ([1]; UC group (4% DSS for 7 days))	half-life ([1]; UC group (4% DSS for 7 days))	MRT inf ([1]; UC group (4% DSS for 7 days))	AUC(0-inf) ([1]; control group)	AUC(0-t) ([1]; control group)	Cmax ([1]; control group)	Tmax ([1]; control group)	half-life ([1]; control group)	MRT inf ([1]; control group)	Stability, mean concentration found [2, 3]	Stability, mean concentration found [2, 4]	Stability, mean concentration found [2, 5]	Stability, mean concentration found [2, 6]	Stability, mean concentration found [2, 7]	Stability, mean concentration found [2, 8]	Stability, mean concentration found [2, 9]	Stability, mean concentration found [2, 10]	SMILES	further results
444 ± 154 ng·h/mL	424 ± 143 ng·h/mL	160 ± 18.9 ng/mL	67.8 ± 13.8 min	72 ± 24.6 min	2.23 ± 0.63 h	219 ± 79.2 ng·h/mL	215 ± 78.4 ng·h/mL	129 ± 33.9 ng/mL	41.4 ± 22.2 min	61.2 ± 25.8 min	1.52 ± 0.33 h	442.09 ± 15.98 ng/mL	7.71 ± 0.12 ng/mL	44.64 ± 3.27 ng/mL	439.66 ± 16.78 ng/mL	7.09 ± 0.16 ng/mL	42.21 ± 3.37 ng/mL	440.84 ± 17.31 ng/mL	6.63 ± 0.51 ng/mL	COC(=O)c1nccc2c1[nH]c1ccccc12 [1-methoxicabony-β-carboline]	Tmax and MRT0–∞ in the UC group compared with the control group ([1]; oral LXF, p < 0.05): longer; Stability, mean concentration found [2, 11]: 42.04 ± 2.18 ng/mL; Stability, mean concentration found [2, 12]: 436.91 ± 13.57 ng/mL; Stability, mean concentration found [2, 13]: 7.43 ± 0.66 ng/mL; Stability, mean concentration found [2, 14]: 42.66 ± 1.92 ng/mL
817 ± 177 ng·h/mL	759 ± 142 ng·h/mL	419 ± 104 ng/mL	25.8 ± 28.2 min	198 ± 91.2 min	3.66 ± 1.55 h	595 ± 117 ng·h/mL	554 ± 74.2 ng·h/mL	395 ± 97.7 ng/mL	4.8 min	189 ± 57.6 min	3.59 ± 1.43 h	391.53 ± 10.08 ng/mL	6.38 ± 0.41 ng/mL	39.35 ± 4.12 ng/mL	387.02 ± 9.84 ng/mL	5.50 ± 0.37 ng/mL	40.41 ± 3.15 ng/mL	386.59 ± 20.07 ng/mL	5.65 ± 0.12 ng/mL	COc1c(O)c(=O)n2c3ccccc3c3ccnc1c32 [4-methoxy-5-hydroxy-canthin-6-one]	Shape of the serum concentration-time curve ([1]; UC group, oral LXF): double peaks; Shape of the serum concentration-time curve ([1]; control group, oral LXF): not showed; Stability, mean concentration found [2, 11]: 41.43 ± 0.76 ng/mL; Stability, mean concentration found [2, 12]: 381.78 ± 17.23 ng/mL; Stability, mean concentration found [2, 13]: 6.39 ± 0.23 ng/mL; Stability, mean concentration found [2, 14]: 42.93 ± 1.44 ng/mL
18400 ng·h/mL	15900 ng·h/mL	4090 ng/mL	41.4 ± 15.6 min	444 ± 301 min	7.4 ± 5.02 h	7120 ng·h/mL	6430 ng·h/mL	2310 ng/mL	31.8 ± 12.6 min	526 ± 178 min	8.42 ± 2.75 h	3,915.74 ± 98.45 ng/mL	58.54 ± 4.47 ng/mL	383.22 ± 9.64 ng/mL	3,896.61 ± 129.89 ng/ml	56.68 ± 4.20 ng/mL	399.59 ± 9.79 ng/mL	3,923.07 ± 110.39 ng/mL	60.13 ± 3.34 ng/mL	C=C1CC[C@@H]2[C@](C)(CO)[C@H](O)CC[C@@]2(C)[C@@H]1C/C=C1/C(=O)OC[C@H]1O [andrographolide]	Stability, mean concentration found [2, 11]: 396.68 ± 13.05 ng/mL; Stability, mean concentration found [2, 12]: 3,904.68 ± 126.18 ng/ml; Stability, mean concentration found [2, 13]: 58.97 ± 2.93 ng/mL; Stability, mean concentration found [2, 14]: 370.23 ± 17.30 ng/mL
4790 ng·h/mL	4690 ng·h/mL	1150 ng/mL	22.8 ± 7.8 min	172 ± 121 min	5.08 ± 1.53 h	2360 ng·h/mL	2330 ng·h/mL	892 ± 148 ng/mL	16.8 ± 5.4 min	137 ± 101 min	5.04 ± 1.96 h	1,421.52 ± 61.75 ng/mL	25.71 ± 1.69 ng/mL	156.59 ± 14.58 ng/mL	1,439.13 ± 52.46 ng/ml	23.51 ± 0.69 ng/mL	153.93 ± 10.00 ng/mL	1,428.09 ± 67.73 ng/mL	21.20 ± 2.30 ng/mL	C=C1CC[C@@H]2[C@](C)(CO)[C@H](O)CC[C@@]2(C)[C@H]1C/C=C1\C=COC1=O [dehydroandrographolide]	Shape of the serum concentration-time curve ([1]; UC group, oral LXF): double peaks; Shape of the serum concentration-time curve ([1]; control group, oral LXF): double peaks; Stability, mean concentration found [2, 11]: 143.60 ± 9.61 ng/mL; Stability, mean concentration found [2, 12]: 1,419.63 ± 51.60 ng/ml; Stability, mean concentration found [2, 13]: 22.46 ± 2.57 ng/mL; Stability, mean concentration found [2, 14]: 151.06 ± 3.31 ng/mL
